Measured values published in patent US7223773B2, “4-oxoquinolizine antibacterial agent having 2-pyridone skeleton as partial structure” (Salo Pharmaceutical Co., Ltd., priority 2001, dated 2007).
In brackets after ≈: the same amount, converted by molar mass.

Experiments:
Type in all cases: cell-based
[1] = tested on: Bacteroides fragilis GAI 0675; assay: in vitro antibacterial activity on anaerobic bacteria (MIC); details: GAI0675; Bacteroides fragilis GAI 0675, anaerobic; read-out: Antimicrobial spectrum MIC
Protocol: (§1) The in vitro antibacterial activities of the compounds provided by the present invention were tested by a standard method of Chemotherapy Society of Japan, i.e. an agar plate dilution method disclosed in CHEMOTHERAPY Vol. 29, pages 76–79, 1981, and the activities of them on anaerobic bacteria were tested by a method disclosed in CHEMOTHERAPY Vol. 27, 559–590, 1979. The results were shown in terms of the minimum inhibition concentration (MIC, μg/ml) for the growth of the bacteria.

[2] = tested on: Propionibacterium acnes JCM 6425; assay: as above; details: Cutibacterium acnes, JCM6425; Propionibacterium acnes JCM 6425, anaerobic; read-out: Antimicrobial spectrum MIC
Protocol: as §1

[3] = tested on: Bacteroides thetaiotaomicron ATCC 29741; assay: as above; details: ATCC29741; Bacteroides thetaiotaomicron ATCC 29741, anaerobic; read-out: Antimicrobial spectrum MIC
Protocol: as §1

[4] = tested on: Bacillus subtilis JCM 2499; assay: in vitro antibacterial activity, agar plate dilution method (MIC); details: JCM2499, read-out: Antimicrobial spectrum MIC
Protocol: as §1

[5] = tested on: Staphylococcus aureus JCM 2874; assay: as above; details: JCM2874, read-out: Antimicrobial spectrum MIC
Protocol: as §1

[6] = tested on: Staphylococcus aureus IFO 13276; assay: as above; details: IFO13276, read-out: Antimicrobial spectrum MIC
Protocol: as §1

[7] = tested on: Staphylococcus aureus Clin-211(MRSA); assay: as above; details: read-out: Antimicrobial spectrum MIC
Protocol: as §1

[8] = tested on: Enterococcus faecalis RIMD 3116001; assay: as above; details: RIMD3116001, read-out: Antimicrobial spectrum MIC
Protocol: as §1

[9] = tested on: Klebsiella pneumoniae IID 865; assay: as above; details: IID865, read-out: Antimicrobial spectrum MIC
Protocol: as §1

[10] = tested on: Streptococcus pneumoniae IID 553; assay: as above; details: IID553, read-out: Antimicrobial spectrum MIC
Protocol: as §1

[11] = tested on: Micrococcus luteus KI 3122; assay: as above; details: KI3122, read-out: Antimicrobial spectrum MIC
Protocol: as §1

[12] = tested on: Escherichia coli IFO 12734; assay: as above; details: IFO12734, read-out: Antimicrobial spectrum MIC
Protocol: as §1

[13] = tested on: Enterococcus faecalis CSJ 1212; assay: as above; details: CSJ1212, read-out: Antimicrobial spectrum MIC
Protocol: as §1

[14] = tested on: Branhamella catarrhalis IID 5233; assay: as above; details: Moraxella catarrhalis, IID5233, read-out: Antimicrobial spectrum MIC
Protocol: as §1

[15] = tested on: Haemophilus influenzae IID 984; assay: as above; details: IID984, read-out: Antimicrobial spectrum MIC
Protocol: as §1

[16] = tested on: Pseudomonas aeruginosa CSJ 1853; assay: as above; details: CSJ1853, read-out: Antimicrobial spectrum MIC
Protocol: as §1

[17] = tested on: Staphylococcus aureus IID 803(Smith); assay: as above; details: IID803, read-out: Antimicrobial spectrum MIC
Protocol: as §1

[18] = tested on: Staphylococcus epidermidis IFO 12993; assay: as above; details: IFO12993, read-out: Antimicrobial spectrum MIC
Protocol: as §1

SMILES | MIC [1] [µg/mL] | MIC [2] [µg/mL] | MIC [3] [µg/mL] | MIC [4] [µg/mL] | MIC [5] [µg/mL] | MIC [6] [µg/mL] | MIC [7] [µg/mL] | MIC [8] [µg/mL] | MIC [9] [µg/mL] | MIC [10] [µg/mL] | MIC [11] [µg/mL] | MIC [12] [µg/mL] | MIC [13] [µg/mL] | MIC [14] [µg/mL] | MIC [15] [µg/mL] | MIC [16] [µg/mL] | MIC [17] [µg/mL] | MIC [18] [µg/mL]
Cc1c(-c2ccc(NCCO)cc2)ccn2c(=O)c(C(=O)O)cc(C3CC3)c12 [Example 46, 1-cyclopropyl-8-[4-(2-hydroxyethylamino)phenyl]-9-methyl-4-oxo-4H-quinolizine-3-carboxylic acid] | 0.125 (≈ 0.33 µM) | 0.016 (≈ 0.0423 µM) | 0.25 (≈ 0.661 µM) | ≤ 0.004 | ≤ 0.004 | ≤ 0.004 | 0.031 (≈ 0.0819 µM) | 0.063 (≈ 0.166 µM) | 0.063 (≈ 0.166 µM) | 0.125 (≈ 0.33 µM) | 0.125 (≈ 0.33 µM) | 0.125 (≈ 0.33 µM) | 0.063 (≈ 0.166 µM) | 0.016 (≈ 0.0423 µM) | 0.031 (≈ 0.0819 µM) | 1 (≈ 2.64 µM) | ≤ 0.004 | 0.008 (≈ 0.0211 µM)
Cc1ccc(-c2ccn3c(=O)c(C(=O)O)cc(C4CC4)c3c2C)cc1 [Example 31, 1-Cyclopropyl-9-methyl-4-oxo-8-p-tolyl-4H-quinolizine-3-carboxylic acid] | 0.25 (≈ 0.75 µM) | 0.25 (≈ 0.75 µM) | 1 (≈ 3 µM) | ≤ 0.004 | 0.008 (≈ 0.024 µM) | 0.008 (≈ 0.024 µM) | 0.125 (≈ 0.375 µM) | 0.5 (≈ 1.5 µM) | 0.031 (≈ 0.093 µM) | 0.5 (≈ 1.5 µM) | 0.125 (≈ 0.375 µM) | 0.125 (≈ 0.375 µM) | 0.25 (≈ 0.75 µM) | 0.031 (≈ 0.093 µM) | 0.125 (≈ 0.375 µM) | 0.5 (≈ 1.5 µM) | 0.008 (≈ 0.024 µM) | 0.016 (≈ 0.048 µM)
CC(=O)c1ccc(-c2ccn3c(=O)c(C(=O)O)cc(C4CC4)c3c2C)cc1 [Example 28, 8-(4-Acetylphenyl)-1-cyclopropyl-9-methyl-4-oxo-4H-quinolizine-3-carboxylic acid] | 0.125 (≈ 0.346 µM) |  | 0.25 (≈ 0.692 µM) | ≤ 0.004 | 0.008 (≈ 0.0221 µM) | 0.008 (≈ 0.0221 µM) | 0.125 (≈ 0.346 µM) | 0.25 (≈ 0.692 µM) | 0.031 (≈ 0.0858 µM) | 0.25 (≈ 0.692 µM) | 0.25 (≈ 0.692 µM) | 0.25 (≈ 0.692 µM) | 0.125 (≈ 0.346 µM) | 0.031 (≈ 0.0858 µM) | 0.25 (≈ 0.692 µM) | 2 (≈ 5.53 µM) | 0.008 (≈ 0.0221 µM) | 0.031 (≈ 0.0858 µM)
Cc1c(-c2ccc(N)c(F)c2)ccn2c(=O)c(C(=O)O)cc(C3CC3)c12 [Example 97, 8-(4-amino-3-fluorophenyl)-1-cyclopropyl-9-methyl-4-oxo-4H-quinolizine-3-carboxylic acid] | 0.031 (≈ 0.088 µM) | 0.031 (≈ 0.088 µM) | 0.125 (≈ 0.355 µM) |  | ≤ 0.004 | 0.016 (≈ 0.0454 µM) | 0.063 (≈ 0.179 µM) | 0.25 (≈ 0.709 µM) | 0.031 (≈ 0.088 µM) | 0.25 (≈ 0.709 µM) | 0.125 (≈ 0.355 µM) | 0.063 (≈ 0.179 µM) | 0.125 (≈ 0.355 µM) | 0.031 (≈ 0.088 µM) | 0.031 (≈ 0.088 µM) | 0.25 (≈ 0.709 µM) | ≤ 0.004 | 0.016 (≈ 0.0454 µM)
Cc1ccc(-c2ccn3c(=O)c(C(=O)O)cc(C4CC4)c3c2C)cc1N [Example 63, 8-(3-Amino-4-methylphenyl)-1-cyclopropyl-9-methyl-4-oxo-4H-quinolizine-3-carboxylic acid] | 0.063 (≈ 0.181 µM) | 0.031 (≈ 0.089 µM) | 0.25 (≈ 0.718 µM) | ≤ 0.004 | 0.008 (≈ 0.023 µM) | 0.008 (≈ 0.023 µM) | 0.063 (≈ 0.181 µM) | 1 (≈ 2.87 µM) | 0.016 (≈ 0.0459 µM) | 1 (≈ 2.87 µM) | 0.125 (≈ 0.359 µM) | 0.125 (≈ 0.359 µM) | 0.5 (≈ 1.44 µM) | 0.063 (≈ 0.181 µM) | 0.125 (≈ 0.359 µM) | 1 (≈ 2.87 µM) | 0.008 (≈ 0.023 µM) | 0.016 (≈ 0.0459 µM)
CCOC(=O)c1cc(C2CC2)c2c(C)c(-c3cc(F)c(CN)s3)ccn2c1=O [Example 111, Ethyl 8-(5-aminomethyl-4-fluorothiophen-2-yl)-1-cyclopropyl-9-methyl-4-oxo-4H-quinolizine-3-carboxylate] | 0.25 (≈ 0.624 µM) | 0.125 (≈ 0.312 µM) | 0.5 (≈ 1.25 µM) |  | 0.031 (≈ 0.0774 µM) | 0.016 (≈ 0.04 µM) | 0.25 (≈ 0.624 µM) | 0.125 (≈ 0.312 µM) | 0.008 (≈ 0.02 µM) | 0.125 (≈ 0.312 µM) | 0.25 (≈ 0.624 µM) | 0.063 (≈ 0.157 µM) | 0.063 (≈ 0.157 µM) | 0.031 (≈ 0.0774 µM) | 0.008 (≈ 0.02 µM) | 0.25 (≈ 0.624 µM) | 0.016 (≈ 0.04 µM) | 0.031 (≈ 0.0774 µM)
